Data set [1] concerns hyperalgesia induced by Freund's complete adjuvant (CFA) in rats. Description: Von Frey filament test, CFA induced hyperalgesia in rats. Format: in vivo, SD rats. The conditions noted are these: for Von Frey Filament Test Values (Mean ± SD), Baseline: pretreatment, n=8; for Von Frey Filament Test Values (Mean ± SD), 15 min: 15 min post treatment; for Von Frey Filament Test Values (Mean ± SD), 2 h: 2 h post treatment; for Von Frey Filament Test Values (Mean ± SD), 5 h: 5 h post treatment; for Von Frey Values of Individual Animal, Day 14, 15 min / Von Frey Values of Individual Animal, Day 14, 2 h / Von Frey Values of Individual Animal, Day 14, 5 h: high dose i.v. (46 and JK-02A 40 mg/kg, JK-02H 20 mg/kg); for Von Frey Values of Individual Animal, Day 14, 15 min / Von Frey Values of Individual Animal, Day 14, 2 h / Von Frey Values of Individual Animal, Day 14, 5 h / Von Frey Values of Individual Animal, Day 7, 15 min / Von Frey Values of Individual Animal, Day 7, 2 h: two repeated stimuli; for Von Frey Values of Individual Animal, Day 7, 15 min / Von Frey Values of Individual Animal, Day 7, 2 h: low dose i.v. (46 and JK-02A 10 mg/kg, JK-02H 5 mg/kg); for First Baseline, Von Frey, individual animal: pretreatment day 7, two repeated stimuli per animal; for Second Baseline, Von Frey, individual animal: pretreatment day 14 after washing-out, two repeated stimuli per animal. How it is done:
Compounds 46 and JK-02A were prepared according to the disclosure of US patent application No. US2008/0176920, and compound JK-02H was prepared according to Example 1. A repeat efficacy study was carried out on the same batch of animals with a single-dose treatment followed by a washing-out period. The 14 days in life studies included two stages: a single low dose treatment assessment on the 7th day and then a single high dose treatment test on the 14th day after CFA injection. On the 7th day after CFA injection, the rats were randomly assigned to respective groups using a computer generated randomization procedure based on the body weight and the baseline values of Von Frey and weight bearing test. Animals received corresponding single dose treatments (vehicle and 3 test articles) on the 7th and 14th days after CFA injection, respectively, and the effect of the test compounds were evaluated. Hyperalgesia of all the study animals was assessed following a single low dose treatment with the test articles on day 7, while a single high dose effect of the test article was evaluated on day 14. The mechanical hyperalgesia and weight bearing were measured on day 7 and day 14 after CFA injection, followed by administration of control or test articles. Von Frey filaments and weight bearing were measured on all the study animals at three time points on day 7, and four time points on day 14. An extra time point assessment was conducted on day 14, considering the strong analgesic effect of the test articles at a higher dose noticed during the test at the 3th time point. Mechanical hyperalgesia of the left hind paw was measured before and during the course of study in all animal groups by determining withdrawal thresholds to Von Frey filament (Bioseb, France). Increasing tensile force perpendicular to the plantar surface of the paw was applied to the filaments. The threshold for paw withdrawal was calculated by taking the average of 2-3 repeated stimuli (unit in “g”). On day 7, Von Frey Filament measurements were conducted three times, at the time points of pretreatment, 15 min and 2 hours post treatment. Following a one-week washing out period, on day 14 after CFA injection, Von Frey Filament tests were performed again four times post a single high dose administration. Rats treated with vehicle or high dose test articles were measured at the time points of pretreatment, 15 min, 2 and 5 hours post treatment. All the results were expressed as mean±SD. One-way analysis of variance (ANOVA) followed by a multiple comparison test were applied among the groups, p<0.05 accepted as significant.

Data set [2] can be described thus: Test of water solubility of the compounds. The conditions noted are these: for Volume of added water: about 0.1 g sample, room temperature, water added until dissolved; for solubility: water, thermodynamic from solid.
Method: At room temperature, about 0.1 g of each sample to be tested (solid materials should be ground as powder) was added to a 10 mL cylinder with a ground glass stopper. Water was gradually added. After each addition of 0.5 mL water, the resulting solution was stirred for 10 min for mixing, and was then visually examined for the presence of any undissolved sample. If there still exists undissolved sample or undissolved portions of the sample after 10 mL water was added, the test would be continued in a 100 mL cylinder.
[3] abbreviates: day 7 after CFA, low dose groups (46 and JK-02A 10 mg/kg, JK-02H 5 mg/kg).
The mark [4] stands for this setting: day 7 after CFA, single low dose i.v. (46 and JK-02A 10 mg/kg, JK-02H 5 mg/kg).
Setting [5] is: day 14 after CFA, high dose groups (46 and JK-02A 40 mg/kg, JK-02H 20 mg/kg).
[6] abbreviates: day 14 after CFA, single high dose i.v. (46 and JK-02A 40 mg/kg, JK-02H 20 mg/kg).

≈ marks a conversion by molar mass, not a printed value. Where “and” joins values, the source holds several entries; their conditions need not be identical. Equal entries are not always repeated.

On to `Cl.O=C(N[C@@H]1CNC[C@H]1NC(=O)c1ccc2cn[nH]c2c1)c1ccc(C(=O)c2c(OCCOCCO)ccc(F)c2F)cc1` [JK-02H, (3R,4R)-3-{4-[2,3-difluoro-6-(5-hydroxy-3-oxapentan-1-oxy)]benzoyl}benzamido-4-(1H-indazole-6-carboxamido)pyrrolidine hydrochloride], for which the “Von Frey Filament Test Values (Mean ± SD), Baseline” value in data set [1] (setting [3]) was determined as 6.76 ± 0.73 g. Also, in data set [1] (setting [4]), the “Von Frey Filament Test Values (Mean ± SD), 15 min” value was 9.85 ± 2.15 g and the “Von Frey Filament Test Values (Mean ± SD), 2 h” value is on record as 8.69 ± 1.57 g. Besides, the “Von Frey Filament Test Values (Mean ± SD), Baseline” value in data set [1] (setting [5]) worked out at 6.81 ± 0.70 g. In addition, in data set [1] (setting [6]), the “Von Frey Filament Test Values (Mean ± SD), 15 min” value was 10.87 ± 1.00 g; the “Von Frey Filament Test Values (Mean ± SD), 2 h” value is 10.57 ± 1.76 g; the “Von Frey Filament Test Values (Mean ± SD), 5 h” value is 9.68 ± 1.63 g. In data set [1] (hydrochloride), the “Von Frey Values of Individual Animal, Day 14, 15 min” value (“Von Frey Values … Day 14, 15 min” below) was 11.6 g and 11.4 g (2×) and 9.4 g (2×) and 10.9 g and 9.7 g and 10.3 g and 10.1 g and 11.1 g and 10.8 g and 10.4 g and 12.0 g and 13.7 g and 11.7 g and 10.0 g; the “Von Frey Values of Individual Animal, Day 14, 2 h” value (“Von Frey Values … Day 14, 2 h” below) is 7.1 g and 8.9 g and 11.3 g and 10.8 g (2×) and 9.2 g and 7.2 g and 12.0 g and 9.8 g and 10.5 g and 10.3 g and 11.4 g and 11.0 g and 12.3 g and 13.0 g and 13.5 g; the “Von Frey Values of Individual Animal, Day 14, 5 h” value (“Von Frey Values … 5 h” for short) is 7.3 g and 8.9 g and 8.7 g (2×) and 9.5 g and 7.1 g and 7.4 g and 8.5 g and 11.0 g and 9.8 g and 11.3 g and 9.9 g and 11.2 g and 12.6 g and 12.1 g and 10.9 g; the “Von Frey Values of Individual Animal, Day 7, 15 min” value (from here on “Von Frey Values … Day 7, 15 min”) is 6.5 g and 5.5 g and 11.9 g and 13.8 g and 8.6 g and 8.5 g (2×) and 10.5 g (2×) and 11.3 g (2×) and 8.7 g and 9.3 g and 9.7 g and 11.4 g and 11.7 g. For the same compound, in data set [1] (hydrochloride), the “Von Frey Values of Individual Animal, Day 7, 2 h” value (“Von Frey Values … Day 7, 2 h” below) was 7.0 g and 6.2 g and 11.4 g and 11.2 g and 8.7 g (2×) and 9.0 g and 7.5 g (3×) and 6.5 g and 8.5 g and 10.8 g (2×) and 8.4 g and 9.4 g; the “First Baseline, Von Frey, individual animal” value (“First Baseline, Von Frey” below) is 4.9 g and 5.8 g (3×) and 6.7 g and 7.7 g and 6.1 g and 7.0 g and 7.1 g and 6.4 g and 7.4 g (2×) and 7.3 g (2×) and 8.0 g and 7.5 g; the “Second Baseline, Von Frey, individual animal” value (from here on “Second Baseline, Von Frey”) is 5.2 g and 5.4 g and 8.4 g and 6.7 g and 6.6 g (2×) and 6.4 g and 7.3 g (2×) and 7.1 g and 6.8 g and 7.6 g and 7.4 g and 6.9 g and 6.2 g and 7.0 g. Besides, in data set [2], the “Volume of added water” value came out at 13.5 mL and the solubility was 7.4 mg/mL. For the same compound, the “water solubility, times higher than that of compound 46” value in data set [2] (relative to compound 46 (parent compound)) is reported as “about 5 times”.
Take `CCCOc1ccc(F)c(F)c1C(=O)c1ccc(C(=O)N[C@@H]2CNC[C@H]2NC(=O)c2ccc3cn[nH]c3c2)cc1` [JK-02A]: in data set [1] (setting [3]), the “Von Frey Filament Test Values (Mean ± SD), Baseline” value was 6.89 ± 0.99 g. Moreover, in data set [1] (setting [4]), the “Von Frey Filament Test Values (Mean ± SD), 15 min” value is listed as 7.64 ± 1.83 g and the “Von Frey Filament Test Values (Mean ± SD), 2 h” value is 7.43 ± 1.62 g. In data set [1] (setting [5]), the “Von Frey Filament Test Values (Mean ± SD), Baseline” value came out at 6.73 ± 0.74 g. Further, in data set [1] (setting [6]), the “Von Frey Filament Test Values (Mean ± SD), 15 min” value is 8.63 ± 1.62 g; the “Von Frey Filament Test Values (Mean ± SD), 2 h” value came out at 8.82 ± 1.20 g; the “Von Frey Filament Test Values (Mean ± SD), 5 h” value was 8.45 ± 2.18 g. Further, in data set [1], the “Von Frey Values … Day 14, 15 min” value was 9.3 g and 8.9 g and 6.5 g and 7.4 g (2×) and 10.9 g and 9.5 g (2×) and 6.1 g and 12.5 g and 10.6 g and 7.6 g and 9.2 g and 8.5 g and 10.7 g and 9.1 g; the “Von Frey Values … Day 14, 2 h” value was 8.7 g (2×) and 9.8 g and 9.5 g and 9.3 g (2×) and 9.4 g and 9.1 g and 8.5 g and 9.2 g and 8.2 g and 8.9 g and 9.6 g and 10.6 g and 6.2 g and 5.8 g; the “Von Frey Values … 5 h” value is 11.9 g and 13.2 g and 6.7 g and 5.2 g and 8.3 g and 9.2 g and 9.7 g and 9.8 g and 8.8 g and 9.9 g and 6.4 g and 5.7 g and 7.3 g and 8.9 g and 7.4 g and 6.8 g; the “Von Frey Values … Day 7, 15 min” value was 9.1 g (3×) and 8.8 g and 6.3 g and 5.6 g (2×) and 10.2 g and 8.9 g and 10.0 g and 9.5 g (2×) and 5.7 g and 7.3 g and 6.0 g and 9.4 g. Besides, in data set [1], the “Von Frey Values … Day 7, 2 h” value was 6.6 g and 5.6 g and 7.0 g (3×) and 8.3 g and 7.4 g and 6.0 g and 8.9 g and 10.5 g and 10.4 g and 6.5 g and 7.1 g and 7.3 g and 5.1 g and 4.9 g; the “First Baseline, Von Frey” value was 5.1 g and 5.9 g and 5.8 g and 6.5 g and 6.9 g and 6.2 g and 5.2 g and 6.8 g (2×) and 7.8 g and 7.3 g and 7.6 g (2×) and 7.9 g and 8.2 g and 8.6 g; the “Second Baseline, Von Frey” value is 7.1 g (2×) and 5.3 g and 5.2 g and 7.4 g and 7.3 g and 6.0 g and 7.6 g and 6.4 g (2×) and 6.6 g and 7.7 g and 7.5 g (2×) and 5.8 g and 6.7 g. Moreover, in data set [2], the “Volume of added water” value is 71.5 mL and the solubility was found to be 1.4 mg/mL (≈ 2560 µM).
For the compound `CCCOc1ccc(O)c(F)c1C(=O)c1ccc(C(=O)N[C@@H]2CNC[C@H]2NC(=O)c2ccc3cn[nH]c3c2)cc1` [compound 46], the “Von Frey Filament Test Values (Mean ± SD), Baseline” value in data set [1] (setting [3]) is on record as 6.81 ± 0.74 g. For the same compound, in data set [1] (setting [4]), the “Von Frey Filament Test Values (Mean ± SD), 15 min” value was 7.12 ± 1.20 g and the “Von Frey Filament Test Values (Mean ± SD), 2 h” value is on record as 7.69 ± 1.59 g. Besides, the “Von Frey Filament Test Values (Mean ± SD), Baseline” value in data set [1] (setting [5]) worked out at 7.01 ± 0.75 g. In addition, in data set [1] (setting [6]), the “Von Frey Filament Test Values (Mean ± SD), 15 min” value stood at 8.17 ± 1.50 g; the “Von Frey Filament Test Values (Mean ± SD), 2 h” value came to 8.04 ± 1.83 g; the “Von Frey Filament Test Values (Mean ± SD), 5 h” value stood at 7.66 ± 1.72 g. Further, in data set [1], the “Von Frey Values … Day 14, 15 min” value is 7.3 g and 9.0 g and 8.3 g and 7.5 g and 9.6 g (2×) and 10.8 g and 7.0 g and 6.7 g and 8.2 g (2×) and 5.5 g and 5.6 g and 8.0 g and 10.5 g and 8.9 g; the “Von Frey Values … Day 14, 2 h” value is 5.8 g and 7.3 g and 8.2 g and 7.0 g and 6.2 g and 7.1 g and 8.9 g (2×) and 7.2 g and 5.9 g (2×) and 8.5 g and 9.7 g and 8.8 g and 11.1 g and 12.1 g; the “Von Frey Values … 5 h” value is 6.6 g (2×) and 7.5 g (2×) and 7.1 g and 6.1 g and 5.9 g and 6.3 g and 8.8 g and 6.8 g and 5.8 g and 7.0 g and 8.7 g and 9.9 g and 11.7 g and 10.3 g; the “Von Frey Values … Day 7, 15 min” value is 7.6 g (2×) and 7.5 g (2×) and 6.8 g and 6.6 g and 5.5 g and 8.2 g and 5.9 g and 7.9 g and 4.6 g and 5.3 g and 9.0 g and 8.9 g and 7.8 g and 7.2 g. In data set [1], the “Von Frey Values … Day 7, 2 h” value is 9.3 g (2×) and 8.8 g and 9.4 g (2×) and 8.6 g and 6.5 g (3×) and 5.8 g and 5.9 g (2×) and 7.4 g and 5.5 g and 8.4 g and 9.8 g; the “First Baseline, Von Frey” value is 7.4 g and 5.4 g and 6.2 g and 6.1 g (2×) and 6.4 g and 6.3 g and 5.5 g and 7.5 g and 7.0 g and 7.3 g and 6.7 g and 7.6 g (2×) and 8.1 g and 7.7 g; the “Second Baseline, Von Frey” value was 7.6 g (2×) and 7.7 g and 6.4 g and 6.2 g (2×) and 5.5 g and 5.7 g and 7.1 g and 7.9 g and 7.0 g and 7.3 g and 7.2 g (2×) and 8.1 g and 7.5 g. Further, in data set [2], the “Volume of added water” value worked out at 66.5 mL and the solubility was 1.5 mg/mL (≈ 2750 µM).
